From article PMC6804419, “Synthesis and Inhibitory Effect of Some Indole‐Pyrimidine Based Hybrid Heterocycles on α‐Glucosidase and α‐Amylase as Potential Hypoglycemic Agents” (ChemistryOpen, 2019)

How the values were obtained:
[1] = target: T1, α-amylase from Aspergillus oryzae (Aspergillus oryzae, UniProt P0C1B3); experiment: α-Amylase assay; type: biochemical
T1 construct: purchased Sigma Aldrich
Procedure: (§1) α‐glucosidase type 1 from baker‘s yeast (G5003; Sigma‐Aldrich, St. Louis, MO, USA), p‐nitrophenyl α‐D‐glucopyranoside (N1377, Sigma‐Aldrich), sodiumphosphatemonobasic (S3139, Sigma‐Aldrich), sodiumphosphatedibasic (S5136, Sigma‐Aldrich), andacarbose (A8980, Sigma‐Aldrich), DMSO (Dimethylsulfoxide), α‐amylase from Aspergillus oryzae (Sigma Aldrich), starch, DNS (3, 5‐dinitrosalicylic acid), sodiumpotassiumtartratetetrahydrate.
Briefly, 250 μL (0.4 mg/mL) was preincubated with 250 μL of α‐amylase solution for 10 min at 25 °C in one set of tubes. In another set of tubes α‐amylase was preincubated with 250 μL of phosphate buffer (pH 6.9). 250 μL of starch solution at increasing concentrations (0.2–1 % (w/v)) was added to both sets of reaction mixtures to start the reaction. The mixture was then incubated for 10 min at 25 °C and then boiled for 15 min after the addition of 250 μL of DNS to stop the reaction. The amount of reducing sugars released was determined spectrophotometrically using a maltose standard curve and converted to reaction velocities.
(§2) The inhibitory concentration 50 % (IC50) values were determined from the plots of percent inhibition versus log inhibitor concentration and calculated by logarithmic regression analysis from the mean inhibitory values.

[2] = target: T2, α-glucosidase type 1 from baker's yeast (Saccharomyces cerevisiae, UniProt P53341); experiment: α-Glucosidase inhibition assay; type: biochemical
T2 construct: purchased Sigma-Aldrich G5003
T2 sequence (P53341 whole entry): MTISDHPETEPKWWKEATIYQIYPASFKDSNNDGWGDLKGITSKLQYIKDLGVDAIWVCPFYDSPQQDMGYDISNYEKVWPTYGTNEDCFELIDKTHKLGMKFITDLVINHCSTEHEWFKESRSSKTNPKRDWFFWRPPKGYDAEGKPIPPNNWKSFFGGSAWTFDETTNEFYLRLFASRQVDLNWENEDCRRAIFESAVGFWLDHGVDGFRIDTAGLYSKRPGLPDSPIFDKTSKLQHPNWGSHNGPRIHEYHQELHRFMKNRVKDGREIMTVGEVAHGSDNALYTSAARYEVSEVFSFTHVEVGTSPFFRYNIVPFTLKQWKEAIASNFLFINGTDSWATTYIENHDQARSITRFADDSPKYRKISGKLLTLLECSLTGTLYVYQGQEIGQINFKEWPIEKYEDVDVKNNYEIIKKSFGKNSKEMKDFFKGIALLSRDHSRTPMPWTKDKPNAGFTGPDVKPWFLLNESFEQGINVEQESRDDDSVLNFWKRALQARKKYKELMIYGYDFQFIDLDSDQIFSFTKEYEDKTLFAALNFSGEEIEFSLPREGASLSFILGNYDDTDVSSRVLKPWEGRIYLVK
Excerpt: as §1
Concentration of α‐glucosidase and substrate. Sodium phosphate buffer (0.1 M) was adjusted by 0.1 N HCl to pH 7.0 with a pH meter (Thermo Fisher Scientific Inc., Waltham, MA, USA). p‐Nitrophenyl α‐D‐glucopyranoside (10 mM) and α‐glucosidase solutions (1 U/ml) were solubilized in 0.1 M sodium phosphate buffer (pH 7.0). All the reagents were manufactured shortly before use and warmed to 37 °C in a water bath. Sodium phosphate buffer (0.1 M, 158 μl per well) was added to a 96‐well plate. α‐Glucosidase (20 μl) and 2 μl of sample were added to 20 μl of p‐nitrophenyl α‐D‐glucopyranoside. In the 200‐μl final reaction volume (0.02 U/well, 0.1 U/ml) the substrate concentration was adjusted to […]. The background signal due to the sample color was measured at 405 nm with the PerkinElmer Wallac Victor3 spectrophotometer (PerkinElmer, Waltham, MA, USA) prior to adding the enzyme. Immediately following α‐glucosidase addition, absorbance was measured at 405 nm 8 times at 1‐min intervals.16
as §2

Row | SMILES | IC50 [1] | IC50 [2] | melting point
1 | CN1C(=O)C(C(CC(=O)c2cn(C)c3ccccc23)c2ccccc2)C(=O)N(C)C1=O (centres unmarked) [5a, 1,3‐Dimethyl‐5‐(3‐(1‐methyl‐1H‐indol‐3‐yl)‐3‐oxo‐1‐phenylpropyl)pyrimidine‐2,4,6(1H,3H,5H)‐trione] | 93.25 ± 0.1 µM | 65.14 ± 0.17 µM | 185 to 186 °C
2 | CCn1cc(C(=O)CC(c2ccc(C)cc2)C2C(=O)N(C)C(=O)N(C)C2=O)c2ccccc21 (centres unmarked) [5b] | 80.17 ± 0.05 µM | 53.15 ± 0.12 µM | 155 to 156 °C
3 | CCn1cc(C(=O)CC(c2ccc(Cl)cc2)C2C(=O)N(C)C(=O)N(C)C2=O)c2ccccc21 (centres unmarked) [5c, 5‐(1‐(4‐Chlorophenyl)‐3‐(1‐ethyl‐1H‐indol‐3‐yl)‐3‐oxopropyl)‐1,3‐dimethylpyrimidine‐2,4,6(1H,3H,5H)‐trione] | 71.24 ± 0.2 µM | 49.75 ± 0.01 µM | 166 to 167 °C
4 | CCn1cc(C(=O)CC(c2ccc(Cl)cc2Cl)C2C(=O)N(C)C(=O)N(C)C2=O)c2ccccc21 (centres unmarked) [5d, 5‐(1‐(2,4‐Dichlorophenyl)‐3‐(1‐ethyl‐1H‐indol‐3‐yl)‐3‐oxopropyl)‐1,3‐dimethylpyrimidine‐2,4,6(1H,3H,5H)‐trione] | 96.42 ± 0.22 µM | 58.21 ± 0.09 µM | 149 to 150 °C
5 | CCn1cc(C(=O)CC(c2ccc(OC)cc2)C2C(=O)N(C)C(=O)N(C)C2=O)c2ccccc21 (centres unmarked) [5e, 5‐(3‐(1‐Ethyl‐1H‐indol‐3‐yl)‐1‐(4‐methoxyphenyl)‐3‐oxopropyl)‐1,3‐dimethylpyrimidine‐2,4,6(1H,3H,5H)‐trione] | 88.45 ± 0.32 µM | 61.4 ± 0.78 µM | 128 to 129 °C
6 | CCn1cc(C(=O)CC(c2ccc(Br)cc2)C2C(=O)N(C)C(=O)N(C)C2=O)c2ccccc21 (centres unmarked) [5f, 5‐(1‐(4‐Bromophenyl)‐3‐(1‐ethyl‐1H‐indol‐3‐yl)‐3‐oxopropyl)‐1,3‐dimethylpyrimidine‐2,4,6(1H,3H,5H)‐trione] | 78.25 ± 0.1 µM | 53.15 ± 0.12 µM | 159 to 160 °C
7 | CCn1cc(C(=O)CC(c2ccc(F)cc2)C2C(=O)N(C)C(=O)N(C)C2=O)c2ccccc21 (centres unmarked) [5g, 5‐(3‐(1‐Ethyl‐1H‐indol‐3‐yl)‐1‐(4‐fluorophenyl)‐3‐oxopropyl)‐1,3‐dimethylpyrimidine‐2,4,6(1H,3H,5H)‐trione] | 86.42 ± 0.22 µM | 69.75 ± 0.01 µM | 185 to 186 °C
8 | CCn1cc(C(=O)CC(c2cccc(F)c2)C2C(=O)N(C)C(=O)N(C)C2=O)c2ccccc21 (centres unmarked) [5h, 5‐(3‐(1‐Ethyl‐1H‐indol‐3‐yl)‐1‐(3‐fluorophenyl)‐3‐oxopropyl)‐1,3‐dimethylpyrimidine‐2,4,6(1H,3H,5H)‐trione] | 89.45 ± 0.44 µM | 61.1 ± 0.42 µM | 188 to 189 °C
9 | CCn1cc(C(=O)CC(c2cccc(C)c2)C2C(=O)N(C)C(=O)N(C)C2=O)c2ccccc21 (centres unmarked) [5i, 5‐(3‐(1‐Ethyl‐1H‐indol‐3‐yl)‐3‐oxo‐1‐(m–tolyl)propyl)‐1,3‐dimethylpyrimidine‐2,4,6(1H,3H,5H)‐trione] | 95.25 ± 0.1 µM | 73.15 ± 0.12 µM | 125 to 126 °C
10 | CCn1cc(C(=O)CC(c2cccc(Br)c2)C2C(=O)N(C)C(=O)N(C)C2=O)c2ccccc21 (centres unmarked) [5j, 5‐(1‐(3‐Bromophenyl)‐3‐(1‐ethyl‐1H‐indol‐3‐yl)‐3‐oxopropyl)‐1,3‐dimethylpyrimidine‐2,4,6(1H,3H,5H)‐trione] | 86.42 ± 0.22 µM | 77.05 ± 0.04 µM | 130 to 131 °C
11 | CCn1cc(C(=O)CC(c2ccc(C(F)(F)F)cc2)C2C(=O)N(C)C(=O)N(C)C2=O)c2ccccc21 (centres unmarked) [5k, 5‐(3‐(1‐Ethyl‐1H‐indol‐3‐yl)‐3‐oxo‐1‐(4‐(trifluoromethyl)phenyl)propyl)‐1,3‐dimethylpyrimidine‐2,4,6(1H,3H,5H)‐trione] | 47.11 ± 0.09 µM | 20.5 ± 0.44 µM | 168 to 169 °C
12 | CCn1cc(C(=O)CC(c2cccs2)C2C(=O)N(C)C(=O)N(C)C2=O)c2ccccc21 (centres unmarked) [5l, 5‐(3‐(1‐Ethyl‐1H‐indol‐3‐yl)‐3‐oxo‐1‐(thiophen‐2‐yl)propyl)‐1,3‐dimethylpyrimidine‐2,4,6(1H,3H,5H)‐trione] | 35.4 ± 0.6 µM | 22.3 ± 0.48 µM | 154 to 155 °C
13 | CCn1cc(C(=O)CC(c2ccco2)C2C(=O)N(C)C(=O)N(C)C2=O)c2ccccc21 (centres unmarked) [5m, 5‐(3‐(1‐Ethyl‐1H‐indol‐3‐yl)‐1‐(furan‐2‐yl)‐3‐oxopropyl)‐1,3‐dimethylpyrimidine‐2,4,6(1H,3H,5H)‐trione] | 82.15 ± 0.5 µM | 64.35 ± 0.08 µM | 188 to 189 °C
14 | CCn1cc(C(=O)CC(c2cc(OC)c(OC)c(OC)c2)C2C(=O)N(C)C(=O)N(C)C2=O)c2ccccc21 (centres unmarked) [5n, 5‐(3‐(1‐Ethyl‐1H‐indol‐3‐yl)‐3‐oxo‐1‐(3,4,5‐trimethoxyphenyl)propyl)‐1,3‐dimethylpyrimidine‐2,4,6(1H,3H,5H)‐trione] | 93.25 ± 0.1 µM | 53.15 ± 0.12 µM | 170 to 171 °C
15 | CCn1cc(C(=O)CC(c2ccc3ccccc3c2)C2C(=O)N(C)C(=O)N(C)C2=O)c2ccccc21 (centres unmarked) [5o, 5‐(3‐(1‐Ethyl‐1H‐indol‐3‐yl)‐1‐(naphthalen‐2‐yl)‐3‐oxopropyl)‐1,3‐dimethylpyrimidine‐2,4,6(1H,3H,5H)‐trione] | 21.7 ± 0.82 µM | 13.02 ± 0.01 µM | 
16 | CCn1cc(C(=O)CC(c2ccc([N+](=O)[O-])cc2)C2C(=O)N(C)C(=O)N(C)C2=O)c2ccccc21 (centres unmarked) [5q, 5‐(3‐(1‐Ethyl‐1H‐indol‐3‐yl)‐1‐(4‐nitrophenyl)‐3‐oxopropyl)‐1,3‐ dimethylpyrimidine‐2,4,6(1H,3H,5H)‐trione] | 63 ± 0.61 µM | 31.12 ± 0.11 µM | 198 to 199 °C
